Results from US10092575B2, “Substituted thiophene- and furan-fused azolopyrimidine-5-(6H)-one compounds” (DART NEUROSCIENCE (CAYMAN) LTD., priority 2012, dated 2018).

What follows are compounds tested against human PDE1b enzyme (Homo sapiens (Human), UniProt Q01064) (assay: PDE1b inhibitory assay (IMAP TR-FRET)). Conditions: not given.

SMILES | EC50 [nM]
Cc1cc2c(s1)n(Cc1ccccc1)c(=O)n1ncnc21 [Example 12, 6-Benzyl-8-methylthieno[3,2-e][1,2,4]triazolo[1,5-c]pyrimidin-5(6H)-one] | 1000 to 10000
COc1ccc(Cn2c(=O)n3ncnc3c3cc(CNCC4(C)COC4)sc32)cc1 [Example 211] | 100 to 1000
COc1ccc(Cn2c(=O)n3ncnc3c3c4c(sc32)NCCC4)cc1 [Example 221, 6-(4-Methoxybenzyl)-8,9,10,11-tetrahydropyrido[3′,2′:4,5]thieno[3,2-e][1,2,4]triazolo[1,5-c]pyrimidin-5(6H)-one] | 100 to 1000
O=c1n(Cc2ccccc2)c2sc(Cc3ccccc3)cc2c2ncnn12 [Example 17, 6,8-Dibenzylthieno[3,2-e][1,2,4]triazolo[1,5-c]pyrimidin-5(6H)-one] | 100 to 1000
Cc1cc2c(s1)n(Cc1ccccc1Cl)c(=O)n1ncnc21 [Example 13, 6-(2-Chlorobenzyl)-8-methylthieno[3,2-e][1,2,4]triazolo[1,5-c]pyrimidin-5(6H)-one] | 1000 to 10000
COc1ccc(Cn2c(=O)n3ncnc3c3cc(CN(C)CC4(C)COC4)sc32)c(F)c1F [Example 210, 6-(2,3-Difluoro-4-methoxybenzyl)-8-((methyl((3-methyloxetan-3-yl)methyl)amino)methyl)thieno[3,2-e][1,2,4]triazolo[1,5-c]pyrimidin-5(6H)-one] | 100 to 1000
O=c1n(Cc2ccc(C(F)(F)F)cc2)c2sc3c(c2c2ncnn12)CCOC3 [Example 89, 6-(4-(Trifluoromethyl)benzyl)-6,8,10,11-tetrahydro-5H-pyrano[4′,3′:4,5]thieno[3,2-e][1,2,4]triazolo[1,5-c]pyrimidin-5-one] | 1000 to 10000
O=c1n(Cc2ccccc2Cl)c2sc3c(c2c2ncnn12)CCCC3 [Example 81, 6-(2-Chlorobenzyl)-8,9,10,11-tetrahydrobenzo[4,5]thieno[3,2-e][1,2,4]triazolo[1,5-c]pyrimidin-5(6H)-one] | 1000 to 10000
O=c1n(Cc2cccc(Cl)c2)c2sccc2c2ncnn12 [Example 2, 6-(3-Chlorobenzyl)thieno[3,2-e][1,2,4]triazolo[1,5-c]pyrimidin-5(6H)-one] | 1000 to 10000
O=c1n(Cc2ccc(Cl)cc2)c2sc(Cc3ccccc3)cc2c2ncnn12 [Example 22, 8-Benzyl-6-(4-chlorobenzyl)thieno[3,2-e][1,2,4]triazolo[1,5-c]pyrimidin-5(6H)-one] | 100 to 1000
COc1ccc(Cn2c(=O)n3ncnc3c3c4c(sc32)N(C(=O)c2ccccc2)CCC4)cc1OC [Example 176, 8-Benzoyl-6-(3,4-dimethoxybenzyl)-8,9,10,11-tetrahydropyrido[3′,2′:4,5]thieno[3,2-e][1,2,4]triazolo[1,5-c]pyrimidin-5(6H)-one] | 1000 to 10000
COc1ccc(Cn2c(=O)n3ncnc3c3cc(CN(C)C4CCOCC4)sc32)cc1 [Example 204, 6-(4-Methoxybenzyl)-8-((methyl(tetrahydro-2H-pyran-4-yl)amino)methyl)thieno[3,2-e][1,2,4]triazolo[1,5-c]pyrimidin-5(6H)-one] | 1000 to 10000
COc1ccc(Cn2c(=O)n3ncnc3c3c(C)c(CN4CCCC4)sc32)cc1 [Example 43, 6-(4-Methoxybenzyl)-9-methyl-8-(pyrrolidin-1-ylmethyl)thieno[3,2-e][1,2,4]triazolo[1,5-c]pyrimidin-5(6H)-one] | 100 to 1000

Same assay, conditions: negative log of half-maximal molar inhibitory concentration; 200 nM FAM-cAMP; reported as ranges

SMILES | PDE1b (pEC50)
COc1ccc(Cn2c(=O)n3ncnc3c3c(C)c(CN4CCOCC4)sc32)cc1 [Example 44, 6-(4-Methoxybenzyl)-9-methyl-8-(morpholinomethyl)thieno[3,2-e][1,2,4]triazolo[1,5-c]pyrimidin-5(6H)-one] | >7
COc1ccc(Cn2c(=O)n3ncnc3c3cc(CN4CCOC(C)(C)C4)sc32)cc1 [Example 36] | >7
COc1ccc(Cn2c(=O)n3ncnc3c3c(C)c(CN4CCN(C)C(C)C4)sc32)cc1 (stereo not drawn) [Example 73, 8-((3,4-Dimethylpiperazin-1-yl)methyl)-6-(4-methoxybenzyl)-9-methylthieno[3,2-e][1,2,4]triazolo[1,5-c]pyrimidin-5(6H)-one] | >7
COc1ccc(Cn2c(=O)n3ncnc3c3c4c(sc32)CN(Cc2nnc(C)s2)CC4)cc1 [Example 108, 6-(4-Methoxybenzyl)-9-((5-methyl-1,3,4-thiadiazol-2-yl)methyl)-8,9,10,11-tetrahydropyrido[4′,3′:4,5]thieno[3,2-e][1,2,4]triazolo[1,5-c]pyrimidin-5(6H)-one] | >7
COc1ccc(Cn2c(=O)n3ncnc3c3c4c(sc32)CN(Cc2ccccn2)CC4)c(F)c1 [Example 139, 6-(2-Fluoro-4-methoxybenzyl)-9-(pyridin-2-ylmethyl)-8,9,10,11-tetrahydropyrido[4′,3′:4,5]thieno[3,2-e][1,2,4]triazolo[1,5-c]pyrimidin-5 (6H)-one] | >7
COc1ccc(Cn2c(=O)n3ncnc3c3c4c(sc32)N(C(=O)C2CC2)CCC4)cc1 [Example 174, 8-(Cyclopropanecarbonyl)-6-(4-methoxybenzyl)-8,9,10,11-tetrahydropyrido[3′,2′:4,5]thieno[3,2-e][1,2,4]triazolo[1,5-c]pyrimidin-5(6H)-one] | >7
COc1ccc(Cn2c(=O)n3ncnc3c3c4c(sc32)CCN(CC2CCOCC2)C4)cc1 [Example 216, 6-(4-Methoxybenzyl)-10-((tetrahydro-2H-pyran-4-yl)methyl)-8,9,10,11-tetrahydropyrido[3′,4′:4,5]thieno[3,2-e][1,2,4]triazolo[1,5-c]pyrimidin-5(6H)-one] | <5
O=C(c1cnccn1)N1CCc2c(sc3c2c2ncnn2c(=O)n3Cc2ccc(Cl)cc2)C1 [Example 157, 6-(4-Chlorobenzyl)-9-(pyrazine-2-carbonyl)-8,9,10,11-tetrahydropyrido[4′,3′:4,5]thieno[3,2-e][1,2,4]triazolo[1,5-c]pyrimidin-5(6H)-one] | >7
COc1ccc(Cn2c(=O)n3ncnc3c3c4c(sc32)N(CC2CCOCC2)CCC4)cc1 [Example 148, 6-(4-Methoxybenzyl)-8-((tetrahydro-2H-pyran-4-yl)methyl)-8,9,10,11-tetrahydropyrido[3′,2′:4,5]thieno[3,2-e][1,2,4]triazolo[1,5-c]pyrimidin-5(6H)-one] | >7
O=C(C1CC1)N1CCc2c(sc3c2c2ncnn2c(=O)n3Cc2ccc(Cl)cc2F)C1 [Example 164, 6-(4-Chloro-2-fluorobenzyl)-9-(cyclopropanecarbonyl)-8,9,10,11-tetrahydropyrido[4′,3′:4,5]thieno[3,2-e][1,2,4]triazolo[1,5-c]pyrimidin-5(6H)-one] | >7
Cc1csc2c1c1ncnn1c(=O)n2Cc1ccc(-c2ccccc2)cc1 [Example 7, 6-([1,1′-Biphenyl]-4-ylmethyl)-9-methylthieno[3,2-e][1,2,4]triazolo[1,5-c]pyrimidin-5(6H)-one] | <5
COc1ccc(Cn2c(=O)n3ncnc3c3c4c(sc32)CNCCC4)cc1 [Example 217, 6-(4-Methoxybenzyl)-6,8,9,10,11,12-hexahydro-5H-[1,2,4]triazolo[1″,5″:1′,6′]pyrimido[5′,4′:4,5]thieno[2,3-c]azepin-5-one] | >7
COc1ccc(Cn2c(=O)n3ncnc3c3c4c(sc32)CN(Cc2nccn2C)CCC4)cc1 [Example 144, 6-(4-Methoxybenzyl)-9-((1-methyl-1H-imidazol-2-yl)methyl)-6,8,9,10,11,12-hexahydro-5H-[1,2,4]triazolo[1″,5″:1′,6′]pyrimido[5′,4′:4,5]thieno[2,3-c]azepin-5-one] | >7
Cc1cc2c(s1)n(Cc1ccc(-c3ccccc3)cc1)c(=O)n1ncnc21 [Example 14, 6-([1,1′-Biphenyl]-4-ylmethyl)-8-methylthieno[3,2-e][1,2,4]triazolo[1,5-c]pyrimidin-5(6H)-one] | <5
COc1ccc(Cn2c(=O)n3ncnc3c3c(C)c(CN4CCOC(C)C4)sc32)cc1 (stereo not drawn) [Example 70, 6-(4-Methoxybenzyl)-9-methyl-8-((2-methylmorpholino)methyl)thieno[3,2-e][1,2,4]triazolo[1,5-c]pyrimidin-5(6H)-one] | >7
COc1ccc(Cn2c(=O)n3ncnc3c3c(C)c(CN4CCNC(=O)C4)sc32)cc1 [Example 53, 6-(4-Methoxybenzyl)-9-methyl-8-((3-oxopiperazin-1-yl)methyl)thieno[3,2-e][1,2,4]triazolo[1,5-c]pyrimidin-5(6H)-one] | >7
COc1ccc(Cn2c(=O)n3ncnc3c3c4c(sc32)N(CC2CCCOC2)CCC4)cc1 (stereo not drawn) [Example 149, 6-(4-Methoxybenzyl)-8-((tetrahydro-2H-pyran-3-yl)methyl)-8,9,10,11-tetrahydropyrido[3′,2′:4,5]thieno[3,2-e][1,2,4]triazolo[1,5-c]pyrimidin-5(6H)-one] | >7
COc1ccc(Cn2c(=O)n3ncnc3c3c4c(sc32)CN(CC2CCOCC2)CC4(F)F)c(F)c1 [Example 156, 11,11-Difluoro-6-(2-fluoro-4-methoxybenzyl)-9-((tetrahydro-2H-pyran-4-yl)methyl)-8,9,10,11-tetrahydropyrido[4′,3′:4,5]thieno[3,2-e][1,2,4]triazolo[1,5-c]pyrimidin-5(6H)-one] | >7
COc1ccc(Cn2c(=O)n3ncnc3c3cc(CN4CCOCC4)sc32)cc1 [Example 31, 6-(4-Methoxybenzyl)-8-(morpholinomethyl)thieno[3,2-e][1,2,4]triazolo[1,5-c]pyrimidin-5(6H)-one] | >7
COc1ccc(Cn2c(=O)n3ncnc3c3c4c(sc32)CNCC4(F)F)cc1 [Example 219, 11,11-Difluoro-6-(4-methoxybenzyl)-8,9,10,11-tetrahydropyrido[4′,3′:4,5]thieno[3,2-e][1,2,4]triazolo[1,5-c]pyrimidin-5 (6H)-one] | >7
